Results on 15 compounds are retold here after US10150737B2, “Compounds for controlling arthropods” (priority 2013, dated 2018).

For series [1], the system named is Ctenocephalides felis. The series can be described thus: Ctenocephalides felis - in vitro contact tests with adult cat fleas. It counts as in vivo. Particulars: application rate 5 μg/cm2 (=500 g/ha); after 48 h; fleas dead or moribund. As to the method: For the coating of the test tubes, 9 mg of active ingredient are first dissolved in 1 ml of acetone p.a. and then diluted to the desired concentration with acetone p.a. 250 μl of the solution are distributed homogeneously on the inner walls and base of a 25 ml test tube by turning and rocking on an orbital shaker (rocking rotation at 30 rpm for 2 h). With 900 ppm active ingredient solution and internal surface area 44.7 cm^2, given homogeneous distribution, an area-based dose of 5 μg/cm^2 is achieved.
After the solvent has evaporated off, the tubes are populated with 5-10 adult cat fleas (Ctenocephalides felis), sealed with a perforated plastic lid and incubated in a horizontal position at room temperature and ambient humidity. After 48 h, efficacy is determined. To this end, the test tubes are stood upright and the fleas are knocked to the base of the tube. Fleas which remain motionless at the base or move in an uncoordinated manner are considered to be dead or moribund.
100% efficacy means that all the fleas were dead or moribund. 0% efficacy means that no fleas were harmed.

Another series deals with Boophilus microplus. The series can be described thus: Boophilus microplus - injection test. It counts as in vivo. The note with it: application rate 20 μg/animal; injection into engorged adult female ticks; after 7 days. In outline:
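Active ingredient in DMSO, 1 μl injected into the abdomen of 5 engorged adult female ticks, then held in a climate-controlled room. Efficacy scored after 7 days from laying of fertile eggs, with non-fertile-looking eggs kept about 42 days for larval hatch; 100% means no fertile eggs.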

Series [2] concerns Ctenocephalides felis. The experiment in a line: Ctenocephalides felis - oral test. Type of series: in vivo. Particulars: application rate 100 ppm in citrated cattle blood; after 2 days. Put shortly:
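Compound in DMSO diluted into citrated cattle blood, fed through a parafilm membrane to about 20 unfed adult cat fleas. Kill in % scored after 2 days (100% = all dead).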

The subject of a further series is Musca domestica. The experiment in a line: Musca domestica test. Type of series: in vivo. The note with it: application rate 100 ppm; adult houseflies; after 2 days. As to the method: (§1) Solvent: dimethyl sulphoxide
(§2) To produce an appropriate active ingredient formulation, 10 mg of active ingredient are mixed with 0.5 ml of dimethyl sulphoxide, and the concentrate is diluted with water to the desired concentration.
Vessels containing a sponge treated with sugar solution and the active ingredient formulation of the desired concentration are populated with 10 adult houseflies (Musca domestica).
After 2 days, the kill in % is determined. 100% means that all of the flies have been killed; 0% means that none of the flies have been killed.

The next series deals with Lucilia cuprina. The series can be described thus: Lucilia cuprina test. It counts as in vivo. Particulars: application rate 100 ppm; L1 larvae; after 2 days. As to the method: as §1, §2
About 20 L1 larvae of the Australian sheep blowfly (Lucilia cuprina) are transferred into a test vessel containing minced horsemeat and the active ingredient preparation of the desired concentration.
After 2 days, the kill in % is determined. 100% means that all the larvae have been killed; 0% means that none of the larvae have been killed.

A further series has as its system Tetranychus urticae. The experiment in a line: Tetranychus urticae - spray test, OP-resistant. It counts as in vivo. Particulars: bean leaf discs, after 6 days. In outline:
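Compound dissolved in acetone/DMF, diluted with water containing 1000 ppm alkylaryl polyglycol ether emulsifier to test concentrations. Bean leaf discs infested with all stages of spider mites were sprayed; % kill determined after 6 days (100% = all mites dead, 0% = none).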

Series [3] is described as follows: logP determination by HPLC on a reversed-phase column (C18). It counts as physicochemical. The note with it: for logP^a): HPLC-MS method a); for log P: HPLC-MS.
The subject of the next series is Spodoptera frugiperda. The experiment in a line: Spodoptera frugiperda - spray test. The note with it: caterpillars on maize leaf discs, after 7 days. Type of series: in vivo. In outline:
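Maize leaf discs sprayed with compound formulated in acetone/DMF and diluted in water containing 1000 ppm alkylaryl polyglycol ether emulsifier, then infested with armyworm caterpillars after drying. Efficacy scored after 7 days as % caterpillars killed (100% all, 0% none).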

The next series relates to Phaedon cochleariae. The series can be described thus: Phaedon cochleariae - spray test. It counts as in vivo. Particulars: larvae on Chinese cabbage leaf discs, after 7 days. Put shortly:
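Chinese cabbage leaf discs sprayed with compound formulated in acetone/DMF and water containing 1000 ppm emulsifier; once dry, infested with mustard beetle larvae. Efficacy (% larvae killed) scored after 7 days.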

[4] abbreviates: reversed-phase column (C18), Table I-T3.

SMILES strings stand for the structures.

In turn, `N#CC1(CNC(=O)c2cc(-c3cnn(-c4c(Cl)cc(C(F)(C(F)(F)F)C(F)(F)F)cc4C(F)(F)F)c3)ccc2Cl)CC1` [I-T3-199] showed an efficacy in the series with Ctenocephalides felis [1] of 100%.
Regarding `O=C(NC1CC1)c1c(Cl)ccc(-c2cnn(-c3c(Cl)cc(C(F)(C(F)(F)F)C(F)(F)F)cc3Cl)c2)c1F` [I-T3-73], the “efficacy (laying of fertile eggs)” value in the series with Boophilus microplus turned out to be 100%. Besides, the “efficacy (kill)” value in the series on Ctenocephalides felis [2], with Musca domestica and in the series with Lucilia cuprina was 100% throughout. Also, the efficacy with Tetranychus urticae (application rate 100 g/ha), in the series with Spodoptera frugiperda (application rate 500 g/ha) and in the series on Phaedon cochleariae (application rate 500 g/ha) was 100% in each case. The “logP^a)” value in series [3] and in [3] (setting [4]) was 4.5 throughout.
Turning to `Cc1cc(C(F)(C(F)(F)F)C(F)(F)F)cc(C)c1-n1cc(-c2ccc(Cl)c(C(=O)NCC(F)(F)F)c2)cn1` [I-T3-2], the “efficacy (laying of fertile eggs)” value in the series with Boophilus microplus stood at 100%. The “efficacy (kill)” value with Ctenocephalides felis [2], in the series with Musca domestica and with Lucilia cuprina was 100% throughout. Further, the efficacy in the series on Tetranychus urticae (application rate 100 g/ha), in the series with Spodoptera frugiperda (application rate 100 g/ha) and in the series with Phaedon cochleariae (application rate 100 g/ha) was 100% throughout. For the same compound, the “logP^a)” value in series [3] and in series [3] (setting [4]) was 4.7 in each case.
With `O=C(NCC(F)(F)F)c1cc(-c2cnn(-c3c(Cl)cc(C(F)(C(F)(F)F)C(F)(F)F)cc3C(F)(F)F)c2)ccc1Cl` [I-T3-58], the “efficacy (laying of fertile eggs)” value with Boophilus microplus turned out to be 100%. Further, the “efficacy (kill)” value in the series on Ctenocephalides felis [2], with Musca domestica and in the series on Lucilia cuprina was 100% throughout. In addition, the efficacy in the series with Tetranychus urticae (application rate 100 g/ha), in the series on Spodoptera frugiperda (application rate 100 g/ha) and in the series with Phaedon cochleariae (application rate 100 g/ha) was 100% in each case. Further, the “logP^a)” value in [3] and in [3] (setting [4]) was 4.7 in each case.
As for `N#CC1(NC(=O)c2cc(-c3cnn(-c4ccc(OC(F)(F)F)cc4Cl)c3)ccc2Cl)CC1` [I-T3-89], in the series on Boophilus microplus, the “efficacy (laying of fertile eggs)” value amounted to 100%. Besides, the “efficacy (kill)” value in the series with Ctenocephalides felis [2], with Musca domestica and in the series with Lucilia cuprina was 100% throughout. The efficacy in the series on Tetranychus urticae (application rate 500 g/ha) is 90%; in the series on Spodoptera frugiperda (application rate 500 g/ha), 100%; in the series on Phaedon cochleariae (application rate 500 g/ha), 100%. Also, the “logP^a)” value in series [3] and in series [3] (setting [4]) was 3.5 throughout.
On to `Cc1cc(C(F)(C(F)(F)F)C(F)(F)F)cc(C)c1-n1cc(-c2cnc(C3CC3)c(C(=O)NC3(C#N)CC3)c2)cn1` [I-T3-139], for which the “efficacy (laying of fertile eggs)” value with Boophilus microplus was found to be 100%. Further, the “efficacy (kill)” value with Ctenocephalides felis [2] came to 100%; in the series with Musca domestica, 90%; with Lucilia cuprina, 100%. Further, the efficacy in the series with Tetranychus urticae (application rate 100 g/ha), in the series with Spodoptera frugiperda (application rate 100 g/ha) and in the series on Phaedon cochleariae (application rate 100 g/ha) was 100% in each case. In addition, the “logP^a)” value in [3] (reversed-phase column (C18)) amounted to 4.1. Also, the log P – broadly, the decadic logarithm of the partition coefficient of the neutral form, usually between octanol and water – in [3] (setting [4]) is reported as 4.1.
Turning to `Cc1cc(C(F)(C(F)(F)F)C(F)(F)F)cc(C)c1-n1ccc(-c2ccc(Cl)c(C(=O)NC3CC3)c2)c1` [I-T46-2], the “efficacy (laying of fertile eggs)” value in the series on Boophilus microplus is reported as 100%. Further, the efficacy in the series with Ctenocephalides felis [1], in the series on Spodoptera frugiperda (application rate 100 g/ha) and in the series with Phaedon cochleariae (application rate 100 g/ha) was 100% throughout. In addition, the “efficacy (kill)” value in the series on Ctenocephalides felis [2] and in the series with Lucilia cuprina was 100% throughout. Also, the log partition coefficient (logP) – broadly, a log measure of how a compound divides between an organic and an aqueous phase – in series [3] (HPLC, C18 reversed phase, acetonitrile/water with formic acid, EEC Directive 79/831 Annex V.A8) came out at 5.0.
`Cc1cc(C(F)(C(F)(F)F)C(F)(F)F)cc(C)c1-n1cc(-c2ccc(Cl)c(C(=O)NC3(C#N)CC3)c2F)cn1` [I-T3-65]: the “efficacy (laying of fertile eggs)” value with Boophilus microplus was 100%. Moreover, the “efficacy (kill)” value in the series with Ctenocephalides felis [2], in the series with Musca domestica and with Lucilia cuprina was 100% throughout. For the same compound, the figures for the efficacy with Tetranychus urticae (application rate 500 g/ha), in the series with Spodoptera frugiperda (application rate 500 g/ha) and with Phaedon cochleariae (application rate 500 g/ha) were 90%, 100% and 100%, respectively. In addition, the entries for the “logP^a)” value in [3] and in series [3] (setting [4]) were 4.4 and 4.3, respectively.
Turning to `N#CC1(NC(=O)c2cc(-c3cnn(-c4ncc(C(F)(C(F)(F)F)C(F)(F)F)cc4Cl)c3)ccc2Cl)CC1` [I-T3-151], in the series with Boophilus microplus, the “efficacy (laying of fertile eggs)” value stood at 100%. The “efficacy (kill)” value with Ctenocephalides felis [2], in the series on Musca domestica and in the series with Lucilia cuprina was 100% in each case. Moreover, the efficacy in the series with Tetranychus urticae (application rate 100 g/ha) is reported as 90%; in the series on Spodoptera frugiperda (application rate 100 g/ha) it was 100%; in the series with Phaedon cochleariae (application rate 100 g/ha), 100%. Moreover, in [3] (reversed-phase column (C18)), the “logP^a)” value worked out at 4.0. Also, the log partition coefficient (log P) in series [3] (setting [4]) is 4.0.
Regarding `COCCNc1ncc(-c2cnn(-c3c(Cl)cc(C(F)(C(F)(F)F)C(F)(F)F)cc3Cl)c2)cc1C(=O)NC1CC1` [I-T3-138], the efficacy in the series on Ctenocephalides felis [1] was determined as 100%; with Tetranychus urticae (application rate 100 g/ha), 90%; in the series with Spodoptera frugiperda (application rate 100 g/ha) it was 100%; in the series on Phaedon cochleariae (application rate 100 g/ha), 83%. In addition, in [3] (reversed-phase column (C18)), the “logP^a)” value was found to be 4.1. Moreover, the “log P” value in series [3] (setting [4]) is given as 4.1.
Take `CCNC(=O)c1cc(-c2cnn(-c3c(Cl)cc(C(F)(F)F)cc3Cl)c2)cnc1C` [I-T3-147]: the values for the efficacy in the series on Ctenocephalides felis [1] and with Tetranychus urticae (application rate 100 g/ha) were 100% and 90%, respectively. The “logP^a)” value in [3] (reversed-phase column (C18)) was found to be 4.0. Further, the lipophilicity (log P) in series [3] (setting [4]) is 4.0.
Consider `N#CC1(NC(=O)c2cc(-c3cnn(-c4c(F)cc(C(F)(C(F)(F)F)C(F)(F)F)cc4F)c3)ccc2Cl)CC1` [I-T3-62], for which, in the series with Boophilus microplus, the “efficacy (laying of fertile eggs)” value was 100%. Besides, the “efficacy (kill)” value in the series with Ctenocephalides felis [2], with Musca domestica and in the series with Lucilia cuprina was 100% each time. In addition, the efficacy in the series with Tetranychus urticae (application rate 100 g/ha), in the series with Spodoptera frugiperda (application rate 100 g/ha) and in the series on Phaedon cochleariae (application rate 100 g/ha) was 100% in each case. Moreover, the “logP^a)” value in series [3] and in [3] (setting [4]) was 3.9 in each case.
For `N#CC1(NC(=O)c2cc(-c3cnn(-c4ccc(C(F)(C(F)(F)F)C(F)(F)F)cc4OC(F)(F)F)c3)ccc2Cl)CC1` [I-T3-34], the “efficacy (laying of fertile eggs)” value in the series with Boophilus microplus was determined as 100%. In addition, the “efficacy (kill)” value in the series on Ctenocephalides felis [2], in the series on Musca domestica and in the series on Lucilia cuprina was 100% throughout. The efficacy with Tetranychus urticae (application rate 500 g/ha), in the series with Spodoptera frugiperda (application rate 500 g/ha) and in the series with Phaedon cochleariae (application rate 500 g/ha) was 100% in each case. The “logP^a)” value in series [3] and in [3] (setting [4]) was 4.6 each time.
With `Cc1cc(C(F)(C(F)(F)F)C(F)(F)F)cc(C)c1-n1cc(-c2cc(C(=O)NC3CC3)ccc2F)cn1` [I-T3-13], the “efficacy (laying of fertile eggs)” value in the series on Boophilus microplus was 100%. In the series on Ctenocephalides felis [1], this compound registered an efficacy of 100%. Also, the “efficacy (kill)” value in the series with Ctenocephalides felis [2] was 80%. Besides, the “logP^a)” value in series [3] and in series [3] (setting [4]) was 4.5 throughout.
In the case of `Cc1cc(C(F)(C(F)(F)F)C(F)(F)F)cc(C)c1-n1cc(-c2ccc(Cl)c(C(=O)NC3CSC3)c2)cn1` [I-T3-4], the “efficacy (laying of fertile eggs)” value in the series on Boophilus microplus is 100%. Also, the “efficacy (kill)” value with Ctenocephalides felis [2], with Musca domestica and with Lucilia cuprina was 100% throughout. Moreover, the efficacy in the series with Tetranychus urticae (application rate 100 g/ha), in the series on Spodoptera frugiperda (application rate 100 g/ha) and in the series on Phaedon cochleariae (application rate 100 g/ha) was 100% each time. Besides, the “logP^a)” value in series [3] and in [3] (setting [4]) was 4.7 throughout.
